Experimental data reported in patent US11952349B2, “Anti-cancer nuclear hormone receptor-targeting compounds” (Nuvation Bio Inc., priority 2019, dated 2024).
Like-named read-outs stand apart in the source and are kept apart here.

How the values were obtained:
22Rv1 cells = experiment: Cell viability assay (CellTiterGlo, 6 days) 22Rv1; assay type: cell-based; details: Homo sapiens, 22Rv1, 144 h; Table 7; cell viability, 6 days; read-out: 22RV1
Description: (§1) Cell viability assay: LNCap, 22Rv1, and T47D cells were seeded at a density of 1500-2000 cells/well in 96 well plates, and a ‘T0’ (timepoint 0) was included along with the assay plate. The plates were then incubated at 37° C., 5% CO2 in a cell culture incubator overnight. On the next day, the ‘T0’ plate was assayed using CellTiterGlo (Promega, Inc) according to the manufacturer's instructions. The appropriate compounds were diluted in DMSO and added to the assay plate (final DMSO concentration of 0.2%) on the next day. The assay plates were incubated for 6 days at 37° C., 5% CO2. After the incubation period, the plates were assayed using CellTiterGlo (Promega, Inc) according to the manufacturer's instructions and luminescence was read on the EnVision plate reader. Inhibition the tested compounds was determined by the following formula: Inhibition rate (%)=(1−(RLU compound−RLU day0)/(RLU control−RLU day0))*100%. GraphPadPrism was used to analyze the data and determine absolute IC50 values.

Human recombinant PARP1 = Human recombinant PARP1 (Homo sapiens, UniProt P09874); experiment: RBC HotSpot PARP1 assay (radioisotope-based filter binding); assay type: biochemical
Sequence of Human recombinant PARP1 (P09874 whole entry): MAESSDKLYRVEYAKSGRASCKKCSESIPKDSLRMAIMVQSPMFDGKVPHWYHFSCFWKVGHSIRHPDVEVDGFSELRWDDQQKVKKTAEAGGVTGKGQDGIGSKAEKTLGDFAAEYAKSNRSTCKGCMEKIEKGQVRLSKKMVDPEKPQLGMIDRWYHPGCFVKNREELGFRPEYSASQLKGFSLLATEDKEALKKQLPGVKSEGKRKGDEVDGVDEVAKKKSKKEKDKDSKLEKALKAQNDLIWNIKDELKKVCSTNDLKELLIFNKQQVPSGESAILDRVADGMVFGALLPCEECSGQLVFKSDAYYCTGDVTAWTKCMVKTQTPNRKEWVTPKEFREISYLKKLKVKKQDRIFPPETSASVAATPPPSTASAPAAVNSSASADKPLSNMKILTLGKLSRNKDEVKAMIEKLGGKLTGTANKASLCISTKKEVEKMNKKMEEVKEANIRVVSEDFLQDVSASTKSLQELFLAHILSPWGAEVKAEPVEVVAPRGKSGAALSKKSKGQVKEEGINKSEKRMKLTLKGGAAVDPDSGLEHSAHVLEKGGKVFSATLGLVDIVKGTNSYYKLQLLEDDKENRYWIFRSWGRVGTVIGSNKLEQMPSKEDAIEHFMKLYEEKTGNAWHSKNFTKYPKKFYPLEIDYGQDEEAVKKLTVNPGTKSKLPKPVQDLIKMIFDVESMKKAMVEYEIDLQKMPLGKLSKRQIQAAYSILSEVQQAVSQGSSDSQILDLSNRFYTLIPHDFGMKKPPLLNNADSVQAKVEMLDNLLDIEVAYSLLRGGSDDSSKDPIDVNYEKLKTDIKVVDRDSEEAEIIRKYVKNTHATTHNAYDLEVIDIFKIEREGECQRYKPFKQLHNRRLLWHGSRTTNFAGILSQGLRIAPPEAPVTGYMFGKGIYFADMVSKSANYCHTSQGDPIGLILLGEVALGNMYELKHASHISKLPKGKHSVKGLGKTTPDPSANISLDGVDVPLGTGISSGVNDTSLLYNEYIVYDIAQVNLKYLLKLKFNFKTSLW
Description: The following methods are for evaluating the in vitro biology properties of the test articles. • a. RBC HotSpot Poly(ADP-ribose) Polymerases 1 (PARP1) and Poly(ADP-ribose) Polymerases 2 (PARP2) Assays: The assay was conducted at Reaction Biology Corporation (RBC; Malvern, PA). The assay principle is radioisotope-based filter binding assay where incorporation of radioisotope-labeled NAD^+ into the substrate captured on filter is detected after washout free NAD^+. Data were analyzed using Excel and GraphPad Prism software for IC50 curve fits. Each assay was conducted with PJ34 as a positive control. PARP1 assay: Human recombinant PARP1 at a final concentration of 2.5 nM was combined with histone H4 (20 μM) and test articles at various concentrations in reaction buffer (50 mM Tris-HCL, pH 8.0, 50 mM NaCl, 10 mM MgCl2, 1 mM DTT, 1% DMSO, and 20 μg/mL activated DNA). The solution was inoculated for 20 min at room temperature and the reaction initiated by adding [adenylate-^32P]-Nicotinamide Adenine Dinucleotide, ^32P-NAD^+ at a final concentration of 10 μM. After incubation for 2 hrs at room temperature, the reaction mixture was filtered and washed with 0.75% phosphoric acid for radioactivity detection. • ii. PARP2 assay: Human recombinant PARP2 at a final concentration of 2.5 nM was combined with histone H3 (20 μM) and test articles at various concentrations in reaction buffer (50 mM Tris-HCL, pH 8.0, 50 mM NaCl, 10 mM MgCl2, 1 mM DTT, 1% DMSO, and 20 μg/mL activated DNA). The solution was inoculated for 20 min at room temperature and the reaction was initiated by adding [adenylate-^32P]-Nicotinamide Adenine Dinucleotide, ^32P-NAD^+ at a final concentration of 10 μM. After incubation for 2 hrs at room temperature, the reaction mixture was filtered and washed with 0.75% phosphoric acid for radioactivity detection. • b. AR binding assay: AR in LNCaP cytosol was used for determining the binding affinity of test articles and the reference compound—progesterone (Sigma, Cat: E2785, St. Louis, MO). IC50 s were determined using 8 concentrations/compound. Cytosol is plated at 200 μg/well (100 μL) into a 96-well conical polypropylene plate (Agilent, Cat: 5042-1385, Santa Clara, CA) and mixed with 3 μL of test compound. After adding 100 μL of ^3H-methyltrienolone (PerkinElmer, Cat: NET590250UC, San Jose, CA), the plate was sealed and shaken at 300 rpm at 4° C. for 24 hours. Post incubation, 100 μL of radioligand adsorption buffer containing 10 mM Tris-HCl, pH 7.4; 1.5 mM EDTA; 1 mM DTT; 0.25% charcoal; 0.0025% dextran was added to individual wells. Plate was shaken for 15 min at 4° C. followed by centrifugation at 3000 rpm for 30 min at 4° C. 150 μL of supernatant is transferred into scint-tube (PerkinElmer, Cat: 6000192) and mixed with 2 mL of Ultima Gold Cocktail (PerkinElmer, Cat: 6013329). Radioactivity is counted using a TriCarb 2910 TR scintillation counter (PerkinElmer). Inhibition of the radioactivity by test articles was calculated using the equation below: % Inhibition=(1−(Assay well−Average_LC)/(Average_HC−Average_LC))×100%. • IC50 values (Table 6) were calculated and graphed using the model “log(inhibitor) vs. response—Variable slope” included in GraphPad Prism 5 (San Diego, CA). The Ki values were further calculated using the equation below where [L] is the radioligand concentration (1 nM) used in this study. Kd value was 0.332 nM. Ki=IC50/(1+[L]/Kd) • c. AR transactivation: Human AR cloned into a CMV vector backbone is used for the transactivation study. HEK-293 cells are plated at 80,000 cells per well of a 24 well plate in DME+5% csFBS. Twenty four hours later, the cells are transfected using Lipofectamine (Invitrogen, Carlsbad, CA) with 0.25 μg GRE-LUC, 0.01 μg CMV-LUC (renilla luciferase) and 25 ng of the AR in OPTIMEM medium. The cells are treated 24 hrs after transfection with various ligands (10^−12 to 10^−5 M final concentrations) and luciferase assay performed 48 hours after transfection. […]

LNCap cells = experiment: Cell viability assay (CellTiterGlo, 6 days) LNCap; assay type: cell-based; details: Homo sapiens, 144 h
Description: as §1

[1] = target: T1, Progesterone Receptor (PR)-LBD (Homo sapiens, UniProt P06401); experiment: PR coactivator antagonist assay; assay type: biochemical; details: Table 8; 10 nM progesterone; read-out: PR antagonism
T1 sequence (P06401 679-913 limits assumed): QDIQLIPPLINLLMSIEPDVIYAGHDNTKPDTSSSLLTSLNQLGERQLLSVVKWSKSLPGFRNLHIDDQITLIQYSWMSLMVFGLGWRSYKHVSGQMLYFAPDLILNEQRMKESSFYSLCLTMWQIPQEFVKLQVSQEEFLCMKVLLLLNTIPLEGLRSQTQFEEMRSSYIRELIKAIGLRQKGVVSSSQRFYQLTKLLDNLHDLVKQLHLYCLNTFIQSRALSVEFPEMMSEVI
Description: PR coactivator antagonist assay: Test compound (Top dose 10 μM, 4 fold serial dilution, 8 point dose response) and/or vehicle was incubated with the 2.5 nM Progesterone Receptor (PR)-LBD and coactivator peptide for 30 minutes at RT. Determination of the amount of complex formed is read spectrofluorimetrically (excitation: 337 nm, emission: 520/490 nm). Test compound-induced inhibition of 10 nM progesterone-induced fluorescence response by 50 percent or more (>50%) indicates receptor antagonist activity.

Compound	IC50 (22Rv1 cells)	IC50 (Human recombinant PARP1; Table 9, read-out: PARP1)	IC50 (LNCap cells; Table 7)	IC50 (LNCap cells; Table 8)	IC50 [1]	IC50 (Human recombinant PARP1; Table 5, in vitro results, read-out: PARP1 IC50)
C[C@]12C[C@H](CCCCCC(=O)N3CCN(C(=O)c4cc(Cc5n[nH]c(=O)c6ccccc56)ccc4F)CC3)C3=C4CCC(=O)C=C4CC[C@H]3[C@@H]1CCC2O (stereo partly drawn) [Compound 138, 4-(4-fluoro-3-(4-(6-((8S,11S,13S,14S)-17-hydroxy-13-methyl-3-oxo-2,3,6,7,8,11,12,13,14,15,16,17-dodecahydro-1H-cyclopenta[a]phenanthren-11-yl)hexanoyl)piperazine-1-carbonyl)benzyl)phthalazin-1(2H)-one]	100 to 1000 nM	< 1 nM	100 to 1000 nM	–	–	–
CC#C[C@]1(O)CC[C@H]2[C@@H]3CCC4=CC(=O)CCC4=C3[C@@H](c3ccc(N(C)CCCCCC(=O)N4CCN(C(=O)c5cc(Cc6n[nH]c(=O)c7ccccc67)ccc5F)CC4)cc3)C[C@@]21C [Compound 135, 4-(4-fluoro-3-(4-(6-((4-((8S,11R,13S,14S,17S)-17-hydroxy-13-methyl-3-oxo-17-(prop-1-ynyl)-2,3,6,7,8,11,12,13,14,15,16,17-dodecahydro-1H-cyclopenta[a]phenanthren-11-yl)phenyl)(methyl)amino)hexanoyl)piperazine-1-carbonyl)benzyl)phthalazin-1(2H)-one]	–	1 to 10 nM	–	100 to 1000 nM	< 10 nM	–
CC(=O)O[C@]1(C(C)=O)CC[C@H]2[C@@H]3CCC4=CC(=O)CCC4=C3[C@@H](c3ccc(N(C)CCCCCC(=O)NCCOCCOCC(=O)N4CCN(C(=O)c5cc(Cc6n[nH]c(=O)c7ccccc67)ccc5F)CC4)cc3)C[C@@]21C [Compound 1384, (8S,11R,13S,14S,17R)-17-acetyl-11-(4-((6-(2-(2-(2-(4-(2-fluoro-5-((4-oxo-3,4-dihydrophthalazin-1-yl)methyl)benzoyl)piperazin-1-yl)-2-oxoethoxy)ethoxy)ethylamino)-6-oxohexyl)(methyl)amino)phenyl)-13-methyl-3-oxo-2,3,6,7,8,11,12,13,14,15,16,17-dodecahydro-1H-cyclopenta[a]phenanthren-17-yl acetate]	–	1 to 10 nM	–	1000 to 10000 nM	< 10 nM	–
Cn1ncnc1C1c2n[nH]c(=O)c3cc(F)cc(c23)N[C@@H]1c1ccc(NC(=O)CCCCCO[C@@H]2CC[C@H]3[C@@H]4CC[C@H]5CCCC[C@]5(C)[C@H]4CC[C@]23C)cc1 (stereo partly drawn) [Compound 1128, 6-((5R,8R,9S,10S,13S,14S,17R)-10,13-dimethylhexadecahydro-1H-cyclopenta[a]phenanthren-17-yloxy)-N-(4-((8S)-5-fluoro-9-(1-methyl-1H-1,2,4-triazol-5-yl)-3-oxo-3,7,8,9-tetrahydro-2H-pyrido[4,3,2-de]phthalazin-8-yl)phenyl)hexanamide]	1000 to 10000 nM	–	100 to 1000 nM	–	–	252 nM
C[C@@]12CCC(=O)C[C@H]1CC[C@H]1[C@H]2CC[C@]2(C)[C@@H]1CC[C@H]2OCCCCCCNC(=O)c1cc(Cc2n[nH]c(=O)c3ccccc23)ccc1F (stereo in doubt) [Compound 1426, N-(6-((5R,8S,9R,10R,13R,14R,17R)-10,13-dimethyl-3-oxohexadecahydro-1H-cyclopenta[a]phenanthren-17-yloxy)hexyl)-2-fluoro-5-((4-oxo-3,4-dihydrophthalazin-1-yl)methyl)benzamide]	1000 to 10000 nM	> 100 nM	1000 to 10000 nM	–	–	–
C[C@]12CC[C@H]3[C@@H](CCC4=CC(=O)CC[C@@]43C)[C@@H]1CC[C@@H]2C(=O)COCCCCCC(=O)N1CCN(C(=O)c2cc(Cc3n[nH]c(=O)c4ccccc34)ccc2F)CC1 [Compound 1386, 4-(3-(4-(6-(2-((8S,9S,10R,13S,14S,17S)-10,13-dimethyl-3-oxo-2,3,6,7,8,9,10,11,12,13,14,15,16,17-tetradecahydro-1H-cyclopenta[a]phenanthren-17-yl)-2-oxoethoxy)hexanoyl)piperazine-1-carbonyl)-4-fluorobenzyl)phthalazin-1(2H)-one]	–	1 to 10 nM	–	100 to 1000 nM	> 10000 nM	–
CC(=O)O[C@]1(C(C)=O)CC[C@H]2[C@@H]3CCC4=CC(=O)CCC4=C3[C@@H](c3ccc(N(C)CCCCCC(=O)N4CCN(C(=O)c5cc(Cc6n[nH]c(=O)c7ccccc67)ccc5F)CC4)cc3)C[C@@]21C [Compound 1378, (8S,11R,13S,14S,17R)-17-acetyl-11-(4-((6-(4-(2-fluoro-5-((4-oxo-3,4-dihydrophthalazin-1-yl)methyl)benzoyl)piperazin-1-yl)-6-oxohexyl)(methyl)amino)phenyl)-13-methyl-3-oxo-2,3,6,7,8,11,12,13,14,15,16,17-dodecahydro-1H-cyclopenta[a]phenanthren-17-yl acetate]	–	1 to 10 nM	–	100 to 1000 nM	< 10 nM	–
C[C@]12Cc3cn[nH]c3C[C@@H]1CC[C@@H]1[C@@H]2CC[C@]2(C)[C@@H](OCCCCCC(=O)N3CCN(C(=O)c4cc(Cc5n[nH]c(=O)c6ccccc56)ccc4F)CC3)CC[C@@H]12 [Compound 1394, 4-(3-(4-(6-(((1S,3aS,3bR,5aS,10aS,10bS,12aS)-10a,12a-dimethyl-1,2,3,3a,3b,4,5,5a,6,7,10,10a,10b,11,12,12a-hexadecahydrocyclopenta[5,6]naphtho[1,2-f]indazol-1-yl)oxy)hexanoyl)piperazine-1-carbonyl)-4-fluorobenzyl)phthalazin-1(2H)-one]	100 to 1000 nM	10 to 100 nM	100 to 1000 nM	–	–	–
